Assays:
Experiment in all cases: relative viability (nuclei count vs DMSO), 5 days (fraction); higher = more cells survive
NCI-H650 = tested on: NCI-H650
Method in brief: (§1)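 After 5 days of treatment, lung cancer cells in 1536-well plates were fixed and stained in a single step (final 0.05% Triton X-100, 1% formaldehyde, 1 ug/ml Hoechst) and their nuclei counted on 4× images. Treatment had been applied by pin tool the day after seeding as one drug alone or as a fixed anchor-drug dose with five library-drug doses (not always all listed) in √10 steps. Relative viability is the nuclei count of treated wells divided by that of vehicle wells, and values are medians of duplicate plates.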

NCI-H2085 = tested on: NCI-H2085
Method in brief: as §1

NCI-H1651 = tested on: NCI-H1651
Method in brief: as §1

HCC-366 = tested on: HCC-366
Method in brief: as §1

COR-L23 = tested on: COR-L23
Method in brief: as §1

LU99A = tested on: LU99A
Method in brief: as §1

NCI-H322M = tested on: NCI-H322M
Method in brief: as §1

HCC-78 = tested on: HCC-78
Method in brief: as §1

HARA = tested on: HARA
Method in brief: as §1

NCI-H460 = tested on: NCI-H460
Method in brief: as §1

NCI-H1793 = tested on: NCI-H1793
Method in brief: as §1

NCI-H2087 = tested on: NCI-H2087
Method in brief: as §1

NCI-H358 = tested on: NCI-H358
Method in brief: as §1

201T = tested on: 201T
Method in brief: as §1

NCI-H1755 = tested on: NCI-H1755
Method in brief: as §1

NCI-H3122 = tested on: NCI-H3122
Method in brief: as §1

SK-LU-1 = tested on: SK-LU-1
Method in brief: as §1

NCI-H23 = tested on: NCI-H23
Method in brief: as §1

H3255 = tested on: H3255
Method in brief: as §1

PC-3 [JPC-3] = tested on: PC-3 [JPC-3]
Method in brief: as §1

NCI-H596 = tested on: NCI-H596
Method in brief: as §1

Cc1cn(-c2cc(NC(=O)c3ccc(C)c(Nc4nccc(-c5cccnc5)n4)c3)cc(C(F)(F)F)c2)cn1 [Nilotinib] + Cc1nc(NC(=O)N2CCC[C@H]2C(N)=O)sc1-c1ccnc(C(C)(C)C(F)(F)F)c1 [Alpelisib] (partner 2 µM)
relative viability (NCI-H650; first compound 0.001 µM): 1 | relative viability (NCI-H650; first compound 0.003162 µM): 1.09 | relative viability (NCI-H650; first compound 0.01 µM): 1.4 | relative viability (NCI-H650; first compound 0.03162 µM): 0.989 | relative viability (NCI-H650; first compound 0.1 µM): 1.23 | relative viability (NCI-H2085; first compound 0.001 µM): 0.967 | relative viability (NCI-H2085; first compound 0.003162 µM): 1.05 | relative viability (NCI-H2085; first compound 0.01 µM): 1.07 | relative viability (NCI-H2085; first compound 0.03162 µM): 0.87 | relative viability (NCI-H2085; first compound 0.1 µM): 0.92 | relative viability (NCI-H1651; first compound 0.001 µM): 0.915 | relative viability (NCI-H1651; first compound 0.003162 µM): 1.15 | relative viability (NCI-H1651; first compound 0.01 µM): 1.41 | relative viability (NCI-H1651; first compound 0.03162 µM): 0.837 | relative viability (NCI-H1651; first compound 0.1 µM): 0.978 | relative viability (HCC-366; first compound 0.001 µM): 0.312 | relative viability (HCC-366; first compound 0.003162 µM): 0.43 | relative viability (HCC-366; first compound 0.01 µM): 0.428 | relative viability (HCC-366; first compound 0.03162 µM): 0.248 | relative viability (HCC-366; first compound 0.1 µM): 0.342 | relative viability (COR-L23; first compound 0.001 µM): 0.873 | relative viability (COR-L23; first compound 0.03162 µM): 0.901 | relative viability (COR-L23; first compound 0.1 µM): 0.791 | relative viability (LU99A; first compound 0.001 µM): 0.495 | relative viability (LU99A; first compound 0.003162 µM): 0.531 | relative viability (LU99A; first compound 0.01 µM): 0.518 | relative viability (LU99A; first compound 0.03162 µM): 0.48 | relative viability (LU99A; first compound 0.1 µM): 0.377 | relative viability (NCI-H322M; first compound 0.001 µM): 0.882 | relative viability (NCI-H322M; first compound 0.003162 µM): 0.817 | relative viability (NCI-H322M; first compound 0.03162 µM): 0.72 | relative viability (NCI-H322M; first compound 0.1 µM): 0.866 | relative viability (HCC-78; first compound 0.001 µM): 0.347 | relative viability (HCC-78; first compound 0.003162 µM): 0.381 | relative viability (HCC-78; first compound 0.01 µM): 0.444 | relative viability (HCC-78; first compound 0.03162 µM): 0.34 | relative viability (HCC-78; first compound 0.1 µM): 0.382 | relative viability (HARA; first compound 0.001 µM): 0.723 | relative viability (HARA; first compound 0.003162 µM): 0.915 | relative viability (HARA; first compound 0.01 µM): 1.06 | relative viability (HARA; first compound 0.03162 µM): 0.551 | relative viability (HARA; first compound 0.1 µM): 0.821 | relative viability (NCI-H460; first compound 0.001 µM): 0.518 | relative viability (NCI-H460; first compound 0.003162 µM): 0.88 | relative viability (NCI-H460; first compound 0.01 µM): 0.936 | relative viability (NCI-H460; first compound 0.03162 µM): 0.312 | relative viability (NCI-H460; first compound 0.1 µM): 0.41 | relative viability (NCI-H1793; first compound 0.003162 µM): 0.778 | relative viability (NCI-H1793; first compound 0.01 µM): 0.861 | relative viability (NCI-H1793; first compound 0.03162 µM): 0.625 | relative viability (NCI-H1793; first compound 0.1 µM): 0.454 | relative viability (NCI-H2087; first compound 0.001 µM): 0.831 | relative viability (NCI-H2087; first compound 0.003162 µM): 1.08 | relative viability (NCI-H2087; first compound 0.01 µM): 1.23 | relative viability (NCI-H2087; first compound 0.03162 µM): 0.938 | relative viability (NCI-H2087; first compound 0.1 µM): 0.794 | relative viability (NCI-H358; first compound 0.001 µM): 0.958 | relative viability (NCI-H358; first compound 0.003162 µM): 1.18 | relative viability (NCI-H358; first compound 0.01 µM): 0.999 | relative viability (NCI-H358; first compound 0.03162 µM): 0.686 | relative viability (NCI-H358; first compound 0.1 µM): 0.666 | relative viability (201T; first compound 0.003162 µM): 1.11 | relative viability (201T; first compound 0.01 µM): 1.09 | relative viability (201T; first compound 0.1 µM): 1.07 | relative viability (NCI-H1755; first compound 0.001 µM): 0.862 | relative viability (NCI-H1755; first compound 0.003162 µM): 1.13 | relative viability (NCI-H1755; first compound 0.01 µM): 0.982 | relative viability (NCI-H1755; first compound 0.03162 µM): 0.707 | relative viability (NCI-H1755; first compound 0.1 µM): 0.785 | relative viability (NCI-H3122; first compound 0.001 µM): 0.941 | relative viability (NCI-H3122; first compound 0.003162 µM): 0.925 | relative viability (NCI-H3122; first compound 0.01 µM): 0.87 | relative viability (NCI-H3122; first compound 0.03162 µM): 0.683 | relative viability (NCI-H3122; first compound 0.1 µM): 0.587 | relative viability (SK-LU-1; first compound 0.001 µM): 0.929 | relative viability (SK-LU-1; first compound 0.003162 µM): 1.03 | relative viability (SK-LU-1; first compound 0.01 µM): 1.06 | relative viability (SK-LU-1; first compound 0.03162 µM): 0.632 | relative viability (SK-LU-1; first compound 0.1 µM): 0.719 | relative viability (NCI-H23; first compound 0.001 µM): 0.654 | relative viability (NCI-H23; first compound 0.003162 µM): 0.784 | relative viability (NCI-H23; first compound 0.01 µM): 0.773 | relative viability (NCI-H23; first compound 0.03162 µM): 0.536 | relative viability (NCI-H23; first compound 0.1 µM): 0.665 | relative viability (H3255; first compound 0.001 µM): 0.681 | relative viability (H3255; first compound 0.003162 µM): 0.699 | relative viability (H3255; first compound 0.01 µM): 0.829 | relative viability (H3255; first compound 0.03162 µM): 0.65 | relative viability (H3255; first compound 0.1 µM): 0.796 | relative viability (PC-3 [JPC-3]; first compound 0.001 µM): 0.987 | relative viability (PC-3 [JPC-3]; first compound 0.003162 µM): 1.27 | relative viability (PC-3 [JPC-3]; first compound 0.01 µM): 1.26 | relative viability (PC-3 [JPC-3]; first compound 0.03162 µM): 1.05 | relative viability (PC-3 [JPC-3]; first compound 0.1 µM): 0.982 | relative viability (NCI-H596; first compound 0.001 µM): 0.457 | relative viability (NCI-H596; first compound 0.003162 µM): 0.541 | relative viability (NCI-H596; first compound 0.01 µM): 0.481 | relative viability (NCI-H596; first compound 0.03162 µM): 0.299 | relative viability (NCI-H596; first compound 0.1 µM): 0.478

From the supplement of paper PMC10307832
